#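 Grown in 96-well plates, cells were treated for 48 hours with each compound at five concentrations. Insufficient inhibition: endpoint recorded as highest concentration tested. At the TGI there is no net growth.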
# Tests used:
# Test in all cases: NCI-60 cell line screen, 48 h
# CAKI-1 renal = system: CAKI-1 renal
# SK-MEL-5 melanoma = system: SK-MEL-5 melanoma
# SN12C renal = system: SN12C renal
# SK-MEL-2 melanoma = system: SK-MEL-2 melanoma
# A498 renal = system: A498 renal
# BT-549 breast = system: BT-549 breast
# HCT-15 colon = system: HCT-15 colon
# SNB-19 CNS = system: SNB-19 CNS
# U251 CNS = system: U251 CNS
# HCT-116 colon = system: HCT-116 colon
# UACC-62 melanoma = system: UACC-62 melanoma
# EKVX NSCLC = system: EKVX NSCLC
# SNB-75 CNS = system: SNB-75 CNS
# MDA-MB-435 = system: MDA-MB-435
# SR leukemia = system: SR leukemia
# K-562 leukemia = system: K-562 leukemia
# LOX IMVI melanoma = system: LOX IMVI melanoma
# COLO 205 colon = system: COLO 205 colon
# OVCAR-4 ovarian = system: OVCAR-4 ovarian
# SW-620 colon = system: SW-620 colon
# SK-MEL-28 melanoma = system: SK-MEL-28 melanoma
# A549 NSCLC = system: A549 NSCLC
# M14 melanoma = system: M14 melanoma
# HCC-2998 colon = system: HCC-2998 colon
# NCI/ADR-RES ovarian = system: NCI/ADR-RES ovarian
# OVCAR-8 ovarian = system: OVCAR-8 ovarian
# ACHN renal = system: ACHN renal
# T-47D breast = system: T-47D breast
# OVCAR-3 ovarian = system: OVCAR-3 ovarian
# SF-295 CNS = system: SF-295 CNS
# MCF7 breast = system: MCF7 breast
# NCI-H522 lung = system: NCI-H522 lung
# MOLT-4 leukemia = system: MOLT-4 leukemia
# UO-31 renal = system: UO-31 renal
# SK-OV-3 ovarian = system: SK-OV-3 ovarian
# HS 578T breast = system: HS 578T breast
# PC-3 prostate = system: PC-3 prostate
# KM12 colon = system: KM12 colon
# TK-10 renal = system: TK-10 renal
# NCI-H460 lung = system: NCI-H460 lung
# NCI-H226 lung = system: NCI-H226 lung
# IGROV1 ovarian = system: IGROV1 ovarian
# HOP-62 NSCLC = system: HOP-62 NSCLC
# 786-0 renal = system: 786-0 renal
# RPMI-8226 leukemia = system: RPMI-8226 leukemia
# SF-268 CNS = system: SF-268 CNS
# HOP-92 NSCLC = system: HOP-92 NSCLC
# DU-145 prostate = system: DU-145 prostate
# OVCAR-5 ovarian = system: OVCAR-5 ovarian
# UACC-257 melanoma = system: UACC-257 melanoma
# NCI-H23 lung = system: NCI-H23 lung
# CCRF-CEM leukemia = system: CCRF-CEM leukemia
# MDA-MB-231 breast = system: MDA-MB-231 breast
structure (smiles),measurement,setting,value
C=C1C[C@@H]2CC[C@@]34CC5O[C@H]6C(O[C@H]7CC[C@H](CC(=O)O[C@@H]8[C@@H](C)[C@@H]9O[C@@H]%10C[C@]%11(C[C@@H]%12O[C@]%13(C[C@H](C)[C@@H]%14O[C@@H]%15CC(C(COC(C)=O)OC(C)=O)O[C@@H]%15C[C@@H]%14O%13)C[C@H](C)[C@@H]%12O%11)O[C@@H]%10C[C@@H]9O[C@H]8CC8O[C@@H](CC[C@@H]1O2)C[C@@H](C)C8(O)CO)O[C@@H]7[C@@H]6O3)[C@H]5O4 (stereo partly drawn),TGI,CAKI-1 renal,> 1000 nM
same,TGI,SK-MEL-5 melanoma,> 1000 nM
same,TGI,SN12C renal,> 1000 nM
same,TGI,SK-MEL-2 melanoma,> 1000 nM
same,TGI,A498 renal,> 1000 nM
same,TGI,BT-549 breast,751 nM
same,TGI,HCT-15 colon,> 1000 nM
same,TGI,SNB-19 CNS,> 1000 nM
same,TGI,U251 CNS,> 1000 nM
same,TGI,HCT-116 colon,> 1000 nM
same,TGI,UACC-62 melanoma,> 1000 nM
same,TGI,EKVX NSCLC,> 1000 nM
same,TGI,SNB-75 CNS,> 1000 nM
same,TGI,MDA-MB-435,> 879 nM
same,TGI,SR leukemia,> 1000 nM
same,TGI,K-562 leukemia,> 1000 nM
same,TGI,LOX IMVI melanoma,> 1000 nM
same,TGI,COLO 205 colon,> 1000 nM
same,TGI,OVCAR-4 ovarian,> 1000 nM
same,TGI,SW-620 colon,> 1000 nM
same,TGI,SK-MEL-28 melanoma,> 1000 nM
same,TGI,A549 NSCLC,> 1000 nM
same,TGI,M14 melanoma,> 1000 nM
same,TGI,HCC-2998 colon,> 225 nM
same,TGI,NCI/ADR-RES ovarian,> 1000 nM
same,TGI,OVCAR-8 ovarian,> 1000 nM
same,TGI,ACHN renal,> 1000 nM
same,TGI,T-47D breast,> 924 nM
same,TGI,OVCAR-3 ovarian,> 1000 nM
same,TGI,SF-295 CNS,> 1000 nM
same,TGI,MCF7 breast,> 1000 nM
same,TGI,NCI-H522 lung,417 nM
same,TGI,MOLT-4 leukemia,> 1000 nM
same,TGI,UO-31 renal,> 1000 nM
same,TGI,SK-OV-3 ovarian,> 1000 nM
same,TGI,HS 578T breast,801 nM
same,TGI,PC-3 prostate,> 1000 nM
same,TGI,KM12 colon,> 792 nM
same,TGI,TK-10 renal,> 1000 nM
same,TGI,NCI-H460 lung,> 955 nM
same,TGI,NCI-H226 lung,> 1000 nM
same,TGI,IGROV1 ovarian,> 1000 nM
same,TGI,HOP-62 NSCLC,> 1000 nM
same,TGI,786-0 renal,> 1000 nM
same,TGI,RPMI-8226 leukemia,> 1000 nM
same,TGI,SF-268 CNS,> 955 nM
same,TGI,HOP-92 NSCLC,> 1000 nM
same,TGI,DU-145 prostate,> 1000 nM
same,TGI,OVCAR-5 ovarian,> 1000 nM
same,TGI,UACC-257 melanoma,> 530 nM
same,TGI,NCI-H23 lung,997 nM
same,TGI,CCRF-CEM leukemia,> 1000 nM
same,TGI,MDA-MB-231 breast,> 1000 nM

# Source: PubChem BioAssay (NCI)
